“And” between values parts separate entries of the source, which are not always exact repeats. Equal entries are not always repeated.
Assays:
IMP-BL21 (IMP-4^+) = test: microbe, parasite or virus in culture; type: cell-based, E. coli; conditions: IMP-BL21
NDM-HK (NDM-1^+) = test: microbe, parasite or virus in culture; type: cell-based, E. coli
VIM-BL21 (VIM-2^+) = test: microbe, parasite or virus in culture; type: cell-based, E. coli; conditions: VIM-BL21
[1] = system: NDM-K. pneumonia (NDM-1^+); test: Microdilution MIC/MBC and checkerboard assay; type: cell-based, Klebsiella pneumonia
NDM-Rosetta = test: Microdilution MIC assay; type: cell-based, E. coli
Source text: Other procedures were kept strictly the same.

NDM-1 [2] = biological target: T1, NDM-1 (Klebsiella pneumoniae, UniProt C7C422); type: biochemical; conditions: MER substrate
Method: (§1) Freshly prepared 50 nM of Zn2-NDM-1, Zn2-VIM-2, or Zn2-IMP-4 in 50 mM HEPES/Na pH 7.0, 100 mM NaCl were first incubated with various concentrations of CBS for 1 h at 25 °C, then mixed with equal volume of 0.2 mM MER. The assay was performed in a 1 cm quartz cuvette using the kinetic mode on a Varian Cary50 UV-visible spectrophotometer at 25 °C. The decrease in absorbance at 300 nm due to ring-opening of MER was monitored every second for a duration of 10 min until the reaction was completed. The initial rates were extracted and calculated from each reaction curves for fitting IC50 curves.
Target sequence in this assay (C7C422 29-270, looked up, species assumed): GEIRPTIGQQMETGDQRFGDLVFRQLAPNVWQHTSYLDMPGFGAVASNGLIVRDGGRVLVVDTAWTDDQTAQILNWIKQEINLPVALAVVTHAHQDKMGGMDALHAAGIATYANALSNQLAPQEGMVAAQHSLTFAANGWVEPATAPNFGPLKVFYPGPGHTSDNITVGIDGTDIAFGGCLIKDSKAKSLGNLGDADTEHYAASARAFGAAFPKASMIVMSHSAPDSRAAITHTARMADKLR

VIM-2 = VIM-2 (Escherichia coli, UniProt Q5U7L7); type: biochemical; conditions: MER substrate
Method: as §1

NDM-1-C208A [3] = biological target: T2, NDM-1-C208A (Klebsiella pneumoniae, UniProt C7C422, C208A); test: Cellular thermal shift assay, mutant strain C208A-Rosetta; type: cell-based, E. coli; conditions: control 48.24 °C
T2 sequence (C7C422 29-270 C208A): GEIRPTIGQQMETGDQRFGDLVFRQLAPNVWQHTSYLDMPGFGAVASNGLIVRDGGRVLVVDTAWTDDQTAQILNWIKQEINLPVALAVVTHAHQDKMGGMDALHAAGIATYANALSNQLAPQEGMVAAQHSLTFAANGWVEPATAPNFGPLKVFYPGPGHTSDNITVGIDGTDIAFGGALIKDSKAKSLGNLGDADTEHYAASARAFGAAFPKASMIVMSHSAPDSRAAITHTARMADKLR

NDM-1 [4] = biological target: T1, NDM-1; test: Zinc displacement analysis by ICP-MS; type: binding; conditions: Zn-bound NDM-1 20 μM + increasing CBS
Method: To monitor the displacement of Zn(II) by Bi(III), ICP-MS was employed to accurately quantify ^209Bi and ^66Zn contents in various purified NDM-1 samples. Purified Zn-bound-NDM-1 (20 μM) dissolved in trace-metal-free ICP-MS buffer containing 50 mM HEPES, pH 7.0, was incubated with various concentrations of CBS at 25 °C for 5 h with mild shaking. The samples were subsequently dialyzed in ICP-MS buffer to remove unbound-metal ions and were then acidified and subsequently analyzed using an ICP-MS spectrometer (Agilent 7500a, Agilent Technologies, CA, USA) with ^115In as an internal standard for ^209Bi, ^66Zn, and ^34S contents, which are used to quantify protein concentration.
Target sequence in this assay (C7C422 29-270, looked up, species assumed): as the sequence (C7C422 29-270, looked up, species assumed) above

NDM-HK = test: Resistance study: MPC and mutation frequency; type: cell-based, E. coli
NDM-1-C208A [5] = biological target: T2, NDM-1-C208A; test: Residual enzyme activity of NDM-1 variant with CBS at IC50; type: biochemical; conditions: CBS at IC50 concentration, compared with WT NDM-1
[6] = set-up: method as in earlier work; conditions: treatment of peptic ulcer disease; cited from earlier work
NDM-1 [7] = biological target: T1, NDM-1; type: cell-based; set-up: endogenous in cells; host or cells: E. coli clinical isolate NDM-HK; conditions: NDM-HK cultured with 100 µM compound; control 50.1 °C
Method: The cellular thermal shift assay was performed according to a standard method. Clinical isolate of NDM-1-positive E. coli (NDM-HK) was cultured overnight in the absence or presence of 100 µM Bi(III) compounds, i.e., CBS, Bi(NAC)3, Bi(NIT)3. The bacterial pellets were harvested and washed with PBS for 4 times. The cell suspensions were aliquoted into PCR tubes and heat treatment was performed at the designated temperature ranging from 40 °C to 70 °C for 3 min in a 96-well thermal cycler. The tubes were cooled immediately at room temperature for another 3 min after heating and the heating procedures were repeated for three cycles. For the cell lysis, the samples were frozen–thawed for two cycles in liquid nitrogen and thermal cycler set at 25 °C. The samples were vortexed gently after each cycle and were centrifuged at 20,000 × g to obtain the supernatant when the second cycle was finished. All the samples were subjected to western blot analysis for detection and quantification of NDM-1 content as described above.
Target sequence in this assay (C7C422 29-270 limits assumed): as the sequence (C7C422 29-270, looked up, species assumed) above

[8] = MER + compound, 256 µg mL^-1 set as MIC of Bi(III)

colloidal bismuth subcitrate [CBS]
MBC of Bi(III) compound alone (IMP-BL21 (IMP-4^+)): > 256 µg/mL
MBC of MER in combination with compound at 32 µg mL^-1 (IMP-BL21 (IMP-4^+)): 8 µg/mL
MIC of Bi(III) compound alone (IMP-BL21 (IMP-4^+)): > 256 µg/mL
MIC of MER in combination with compound at 32 µg mL^-1 (IMP-BL21 (IMP-4^+)): 4 µg/mL
FICI (IMP-BL21 (IMP-4^+); [8]): 0.187
growth inhibition by CBS itself (NDM-HK (NDM-1^+); NDM-1-positive NDM-HK, even at 256 µg mL^-1): no or minor growth inhibition
MBC of Bi(III) compound/inhibitor alone (NDM-HK (NDM-1^+); NDM-HK): > 256 µg/mL
MBC of MER in combination with compound at 32 µg mL^-1 (NDM-HK (NDM-1^+); NDM-HK): 4 µg/mL
MIC of Bi(III) compound/inhibitor alone (NDM-HK (NDM-1^+); NDM-HK): > 256 µg/mL
MIC of MER in combination with CBS at 16 µg mL-1 (NDM-HK (NDM-1^+); NDM-HK): 4 µg/mL
MIC of MER in combination with CBS at 256 µg mL-1 (NDM-HK (NDM-1^+); NDM-HK): 2 µg/mL
MIC of MER in combination with compound at 32 µg mL^-1 (NDM-HK (NDM-1^+); NDM-HK): 2 µg/mL
FICI (NDM-HK (NDM-1^+); NDM-HK, MER + compound, 256 µg mL^-1 set as MIC of Bi(III), 128 for Bi(NAC)3): 0.250
MBC of Bi(III) compound alone (VIM-BL21 (VIM-2^+)): > 256 µg/mL
MBC of MER in combination with compound at 32 µg mL^-1 (VIM-BL21 (VIM-2^+)): 1 µg/mL
MIC of Bi(III) compound alone (VIM-BL21 (VIM-2^+)): > 256 µg/mL
MIC of MER in combination with compound at 32 µg mL^-1 (VIM-BL21 (VIM-2^+)): 0.5 µg/mL
FICI (VIM-BL21 (VIM-2^+); [8]): 0.047
MBC of MER in combination with compound at 32 µg mL^-1 ([1]; NDM-K. pneumonia (NDM-KP)): 8 µg/mL
MIC of MER in combination with compound at 32 µg mL^-1 ([1]; NDM-K. pneumonia (NDM-KP)): 4 µg/mL
MBC of Bi(III) compound alone ([1]; NDM-KP): > 256 µg/mL
MIC of Bi(III) compound alone ([1]; NDM-KP): > 256 µg/mL
FICI ([1]; NDM-KP, MER + compound, 256 µg mL^-1 set as MIC of Bi(III)): 0.375
decrease in MIC of MER in combination with CBS (NDM-Rosetta; NDM-1 positive E. coli Rosetta(DE3)): 8 fold
MIC of MER in combination with CBS (NDM-Rosetta; NDM-1 positive E. coli Rosetta(DE3), CBS concentration not stated): 4 µg/mL
MIC of MER in combination with CBS at 16 µg mL-1 (NDM-Rosetta; NDM-Rosetta): 8 µg/mL
MIC of MER in combination with CBS at 32 µg mL-1 (NDM-Rosetta; NDM-Rosetta): 4 µg/mL
MIC of MER in combination with CBS at 256 µg mL-1 (NDM-Rosetta; NDM-Rosetta): 4 µg/mL
IC50 (NDM-1 [2]; NDM-1 50 nM, 1 h preincubation): 2.81 ± 0.34 µM
maximal inhibition of MBL activity (NDM-1 [2]; NDM-1, dose-dependent): approximately 90%
IC50 (VIM-2; VIM-2 50 nM, 1 h preincubation): 3.54 µM and 3.55 µM
maximal inhibition of MBL activity (VIM-2; VIM-2, dose-dependent): approximately 90%
melting temperature, treated group (NDM-1-C208A [3]): 49.72 °C
Bi(III) bound to the enzyme (NDM-1 [4]): 0.96 molar equivalents
Zn(II) displaced from NDM-1 (NDM-1 [4]): ca. 2.13 molar equivalents
observed mutation frequency (NDM-HK; MER with increasing CBS concentration): 1.31 × 10^−7 to 9.84 × 10^−10
MER MPC with CBS (NDM-HK; ≥128 µg mL^−1 CBS): 2 fold MIC
inhibitory effect on NDM-1-C208A (NDM-1-C208A [5]): much reduced inhibitory effect
intoxication at recommended dosage [6]: No intoxication has been documented
NDM-1 melting temperature, treated group (NDM-1 [7]): 48 °C
